The test system of one experiment is HCT116 cells. Description: Apoptosis assay, annexin V-FITC/PI double labeling, HCT116. In kind it is cell-based, human. The following applies: 10 μg/ml 24 h, FIG. 7C.
Another experiment deals with HT29 cells. The experiment in a line: Apoptosis assay, annexin V-FITC/PI double labeling, HT29. In kind it is cell-based, human. The conditions noted are these: 10 μg/ml 24 h, FIG. 7C. How it is done:
(§1) FIGS. 7A to 7G. EpAb2-6 binds EpEX and induces apoptosis by F(ab′)2 and inhibits regulated intramembrane proteolysis (RIP) activation and HGFR signaling. (FIG. 7A) Binding affinity of IgG EpAb2-6 (mouse) and F(ab′)2 to EpEX-His (1 μg/ml) coated overnight was checked using ELISA (OD450). (FIG. 7B) HCT116 cells were treated with 100 μg/ml control IgG, Fc, or F(ab′)2 of EpAb2-6 for 24 h. The apoptotic and necrotic cells were quantified by fluorescein annexin V-FITC/PI double labeling. (FIG. 7C) HCT116 and HT29 cells were treated with 10 μg/ml control IgG, MT201, humanized EpAb2-6 (hEpAb2-6) or mouse hybridoma EbAb2-6 (mEpAb2-6) for 24 h. The apoptotic and necrotic cells were quantified by fluorescein annexin V-FITC/PI double labeling. (FIG. 7D) HCT116 cells were treated with 10 μg/ml control IgG, MT201, hEpAb2-6 or mEpAb2-6 for 16 h, followed by treatment with EpEX-His (50 nM) for 15 min. Levels of phosphorylated HGFR, AKT, and ERK, and (FIG. 7E) RIP proteins ADAM17 and presenilin 2 were examined by Western blotting. Anti-EpCAM antibody and crizotinib coordinately induces apoptosis in colon cancer cells. (FIG. 7F) HCT116 and HT29 cells were treated with 10 μg/ml NMIgG or EpAb2-6 and 4 μM HGFR inhibitor crizotinib for 24 h. The apoptotic and necrotic cells were quantified by fluorescein annexin V-FITC/PI double labeling. (FIG. 7G) HCT116 and HT29 cells were treated with 10 μg/ml NMIgG or EpAb2-6 and 10 μM HGFR inhibitor crizotinib. Cell invasion was assessed by a Transwell assay with matrigel after 24 h.
Cells were seeded and treated with 10 μg/ml mAb or inhibitor for 6 h; an unrelated mouse myeloma immunoglobulin used at appropriate dilution served as the IgG2a (Invitrogen #02-6200) isotype control. Apoptotic cells were detected using Annexin V-FITC and PI, and were analyzed using a flow cytometer (BD Immmunocytometry Systems). Early apoptosis was measured with the Annexin V-FITC Apoptosis Detection kit II (BD Pharmingen). Late apoptotic nuclei were detected with propidium iodide (PI) staining.

A further experiment concerns ADAM17 and presenilin 2. The experiment in a line: Western blotting of RIP proteins ADAM17 and presenilin 2 in HCT116 cells. The conditions noted are these: 10 μg/ml 16 h, then EpEX-His 50 nM 15 min, FIG. 7E. In kind it is cell-based, human. Here is the method:
as §1, with “(FIG. 7G) HCT116 and HT29 cells were treated with 10 μg/ml NMIgG or EpAb2-6 and 10 μM HGFR inhibitor crizotinib.” left out
Whole cell extracts were prepared with RIPA buffer (50 mM Tris-HCl pH7.4, 1% NP-40, 0.5% Sodium deoxycholate, 0.1% SDS, 150 mM NaCl, 2 mM EDTA, 50 mM NaF). Protein concentrations of the cell lysates were determined by the Bradford assay. […]
Appropriate horseradish peroxidase-associated secondary antibodies (Millipore) were applied and the membranes were incubated at room temperature (RT) for 1 h. The protein bands were subsequently visualized with chemiluminescence reagents (Millipore) and detected on a BioSpectrum 600 Imaging system (UVP). The protein level was quantified from band intensity using Gel-Pro analyzer 3.1 (Media Cybernetics).
For orientation: A western blot detects proteins with antibodies after separation by electrophoresis.

In the next experiment the test system is EpCAM. The experiment in a line: Antibody binding to EpCAM wild-type and mutants expressed in HEK293T cells (immunofluorescence, flow cytometry, cellular ELISA). On the set-up: species or system human. The conditions noted are these: HEK293T; immunofluorescence, flow cytometry, cellular ELISA; FIG. 8E-8G. Here is the method:
FIGS. 8A to 8G. EpAb2-6 binds to both EGF-like domain I and II of EpCAM. HEK293T cells were transfected with full length or EGF like-domain deletion mutant EpCAM-V5. Antibody binding was assessed by (FIG. 8A) Western blotting, (FIG. 8B) flow cytometry, and (FIG. 8C) immunofluorescence. (FIG. 8D) EpCAM mutants were constructed with amino acid substitutions in the EGF-I (Y32A) and EGF-II (L94A, Y95A, or D96A) domains. EpCAM wild-type and mutant proteins were expressed in HEK293T cells. Binding of MT201, EpAb2-6 and EpAb23-1 to EpCAM wild-type and mutants were evaluated by (FIG. 8E) immunofluorescence, (FIG. 8F) flow cytometry, and (FIG. 8G) cellular ELISA.
A previous study identified the binding epitope of EpAb2-6 antibody as the LYD motif in EpCAM, which corresponds to amino acid residues 94-96; in particular, residue 95 (Y95) plays a major role in EpAb2-6 binding (Liao et al., 2015). […] Therefore, we wanted to determine whether the antibody binds to EpCAM at both EGF-like domains of EpEX (FIG. 8A, FIG. 8B, FIG. 8C). To confirm that EpAb2-6 recognizes the LYD motif in EpCAM, we constructed cDNA sequences encoding the first (aa 27-59; EGF-I domain) and second (aa 66-135; EGF-II/TY domain) EGF-like repeats of EpCAM. PCR-based site-directed mutagenesis was then used to introduce mutations into each domain (FIG. 8D). The reactivity of EpAb2-6 antibody toward these EpCAM mutants was evaluated by immunofluorescence (FIG. 8E), flow cytometry (FIG. 8F), and cellular ELISA (FIG. 8G).

As for “MT201: human anti-EpCAM antibody, adecatumumab (MT201)”, the apoptosis entry in the experiment on HCT116 cells and in the experiment on HT29 cells was “did not show such effects” throughout. In addition, in the experiment on ADAM17 and presenilin 2, the “levels of phosphorylated ADAM17 and presenilin 2” value was “no such effects”. In addition, the “antibody binding to EpCAM with mutations at Y32 (EGF-I domain) or Y95 (EGF-II domain)” value with EpCAM was “did not affect”.

B1: EpAb2-6: anti-EpCAM neutralizing monoclonal antibody targeting EpEX; VH SEQ ID NO: 15, VL SEQ ID NO: 16 (antibody, listed as Homo sapiens, V domains shown)
VH: VKLQESGPELKKPGETVKISCKASGYTFTDYSMHWVKQAPGKGLKWMGWINTETGEPTYADDFKGRFAFSLETSASTAYLQINNLKNEDTATYFCARTAVYWGQGTTVTVSS
VL: DIQMTQSPSSLSASLGERVSLTCRASQEISVSLSWLQQEPDGTIKRLIYATSTLDSGVPKRFSGSRSGSDYSLTISSLESEDFVDYYCLQYASYPWTFGGGTKLEIKRADAAPTVS
As for B1, the apoptosis result in the experiment with HCT116 cells and in the experiment on HT29 cells was “inducing apoptosis” each time. In addition, the “levels of phosphorylated ADAM17 and presenilin 2” value with ADAM17 and presenilin 2 is on record as “decreased”. Besides, the “antibody binding to EpCAM with mutations at Y32 (EGF-I domain) or Y95 (EGF-II domain)” value in the experiment on EpCAM is “marked reductions”.
